What was measured:
Experiment in all cases: relative viability (nuclei count vs DMSO), 5 days (fraction); higher = more cells survive
[1] = test system: NCI-H1993
Method in brief: (§1)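 Lung cancer cell lines were seeded in 1536-well plates and dosed by pin tool the next day, with either a single drug or a fixed anchor-drug dose combined with five library-drug doses (not always all listed) spaced in √10 steps. Five days later, one step fixed the cells and stained their nuclei (final 0.05% Triton X-100, 1% formaldehyde, 1 ug/ml Hoechst), and nuclei were counted on 4× images. Relative viability is the nuclei count in treated wells divided by the count in vehicle wells, and each value is the median of duplicate plates.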

[2] = test system: NCI-H838
Method in brief: as §1

[3] = test system: NCI-H2170
Method in brief: as §1

[4] = test system: ABC-1
Method in brief: as §1

[5] = test system: NCI-H1666
Method in brief: as §1

[6] = test system: LCLC-103H
Method in brief: as §1

[7] = test system: NCI-H23
Method in brief: as §1

[8] = test system: HCC-44
Method in brief: as §1

[9] = test system: NCI-H1355
Method in brief: as §1

[10] = test system: NCI-H520
Method in brief: as §1

[11] = test system: 201T
Method in brief: as §1

[12] = test system: HOP-62
Method in brief: as §1

`O=C(O)CCCCC(CCSCc1ccccc1)SCc1ccccc1` (configuration not stated) [CPI-613] + CC(=O)c1c(C)c2cnc(Nc3ccc(N4CCNCC4)cn3)nc2n(C2CCCC2)c1=O [Palbociclib] (partner 0.5 µM) was tested, and the relative viability ([1]; first compound 5 µM) was 0.611, the relative viability ([1]; first compound 15.81 µM) was 0.581 and the relative viability ([1]; first compound 50 µM) was 0.715. The relative viability ([1]; first compound 158.11 µM) was 0.468, the relative viability ([1]; first compound 500 µM) was 0.38 and the relative viability ([2]; first compound 5 µM) was 0.21. The relative viability ([2]; first compound 15.81 µM) was 0.189, the relative viability ([2]; first compound 50 µM) was 0.216 and the relative viability ([2]; first compound 158.11 µM) was 0.139. The relative viability ([2]; first compound 500 µM) was 0.0859, the relative viability ([3]; first compound 5 µM) was 0.379 and the relative viability ([3]; first compound 15.81 µM) was 0.415. For the same compound, the relative viability ([3]; first compound 50 µM) was 0.382, the relative viability ([3]; first compound 158.11 µM) was 0.372 and the relative viability ([3]; first compound 500 µM) was 0.219. It also gave a relative viability ([4]; first compound 5 µM) of 0.603, a relative viability ([4]; first compound 15.81 µM) of 0.669 and a relative viability ([4]; first compound 50 µM) of 0.639. The relative viability ([4]; first compound 158.11 µM) was 0.415, the relative viability ([4]; first compound 500 µM) was 0.4 and the relative viability ([5]; first compound 5 µM) was 0.68. For the same compound, the relative viability ([5]; first compound 15.81 µM) was 0.577, the relative viability ([5]; first compound 50 µM) was 0.574 and the relative viability ([5]; first compound 158.11 µM) was 0.469. For the same compound, the relative viability ([5]; first compound 500 µM) was 0.425, the relative viability ([6]; first compound 5 µM) was 0.464 and the relative viability ([6]; first compound 15.81 µM) was 0.456. For the same compound, the relative viability ([6]; first compound 50 µM) was 0.455, the relative viability ([6]; first compound 158.11 µM) was 0.343 and the relative viability ([6]; first compound 500 µM) was 0.213. For the same compound, the relative viability ([7]; first compound 5 µM) was 0.465, the relative viability ([7]; first compound 15.81 µM) was 0.465 and the relative viability ([7]; first compound 50 µM) was 0.519. The relative viability ([7]; first compound 158.11 µM) was 0.104, the relative viability ([7]; first compound 500 µM) was 0.0119 and the relative viability ([8]; first compound 5 µM) was 0.959. The relative viability ([8]; first compound 15.81 µM) was 0.954, the relative viability ([8]; first compound 50 µM) was 1.04 and the relative viability ([8]; first compound 158.11 µM) was 0.6. It also gave a relative viability ([8]; first compound 500 µM) of 0.606, a relative viability ([9]; first compound 5 µM) of 0.429 and a relative viability ([9]; first compound 15.81 µM) of 0.408. It also gave a relative viability ([9]; first compound 50 µM) of 0.424, a relative viability ([9]; first compound 158.11 µM) of 0.407 and a relative viability ([9]; first compound 500 µM) of 0.105. The relative viability ([10]; first compound 5 µM) was 0.225, the relative viability ([10]; first compound 15.81 µM) was 0.2 and the relative viability ([10]; first compound 50 µM) was 0.169. For the same compound, the relative viability ([10]; first compound 158.11 µM) was 0.119, the relative viability ([10]; first compound 500 µM) was 0.117 and the relative viability ([11]; first compound 5 µM) was 0.341. The relative viability ([11]; first compound 15.81 µM) was 0.34, the relative viability ([11]; first compound 50 µM) was 0.353 and the relative viability ([11]; first compound 158.11 µM) was 0.185. For the same compound, the relative viability ([11]; first compound 500 µM) was 0.204, the relative viability ([12]; first compound 5 µM) was 0.437 and the relative viability ([12]; first compound 15.81 µM) was 0.45.

— the supplement of paper PMC10307832
